pIC50: −log10 of the molar value.
Legend:
[1] = test system: PC-3 (human prostate cancer cells); assay: MTT assay for cell viability, PC-3; format: cell-based; details: Homo sapiens, 48 h
Experimental: (§1) The human cancer cell lines e.g. HepG2 (hepatocellular carcinoma, ATCC® HB-8065™), PC-3 (human prostate cancer cells, ATCC® CRL-1435™), MCF-7 (breast adenocarcinoma, ATCC® […]), and mouse embryo fibroblasts (NIH/3T3, ATCC® CRL-1658™), used in the present study were obtained from the ATCC (American Type Culture Collection, USA and maintained in RPMI 1640 (Roswell Park Memorial Institute, Merck) with 10% FBS (Merck), supplemented with 1% antibiotic and antimycotic solution (Gibco, USA) at 37° C. in a humidified incubator with 5% CO2. All stock solutions of the compounds were prepared in cell culture grade DMSO (dimethyl sulfoxide) and stored at −20° C. Compounds were diluted in culture media prior to use in experiments. Annexin V-FITC apoptosis detection kits were purchased from Calbiochem. MTT dye was procured from Sigma-Aldrich. All the flow cytometry experiments were performed using a FACScan (Becton Dickinson, Mountain View, Calif.) flow cytometer, equipped with a single 488 nm argon laser.
(§2) Cell viability was assessed by MTT assay, which is based on the reduction of MTT by mitochondrial dehydrogenases of viable cells to form a purple formazan product. Briefly, cells (5-6×10^3/well) were plated in 96 well plates. After incubating overnight, the cells were treated with […] different concentrations (100, 50, 20, 10, 5, 2.5, 1.25 μM) in triplicates with the cationic lipidated cordiarimide and intermediates for 48 h. Subsequently, 10 μL of MTT (10 mg/mL) was added to each well and incubated for 3 h. The MTT formazan formed by viable cells was dissolved in 100 μL of DMSO and shaken for 10 min. The absorbance was measured on an ELISA reader. Each test was repeated at least three times. The concentration of the compound which gives the 50% growth inhibition value corresponding to IC50, was calculated using GraphPad prism 5 software. In the present invention we have screened 26 lipidated cordiarimides and the results are described in table 1.

[2] = test system: HepG2 (hepatocellular carcinoma); assay: MTT assay for cell viability, HepG2; format: cell-based, human; details: Homo sapiens, HepG2, 48 h
Experimental: as §1, §2

[3] = test system: MCF-7 (breast adenocarcinoma); assay: MTT assay for cell viability, MCF-7; format: cell-based, human; details: Homo sapiens, MCF7, 48 h
Experimental: as §1, §2

[4] = test system: mouse embryo fibroblasts (NIH/3T3); assay: MTT assay for cell viability, NIH/3T3; format: cell-based; details: NIH3T3, 48 h
Experimental: as §1, §2

[5] = molecular target: human ligase I (Homo sapiens, UniProt P18858); assay: Ligation assay, DNA ligase I; format: biochemical; details: screening, FIG. 4 and FIG. 7
Sequence of human ligase I (P18858 whole entry): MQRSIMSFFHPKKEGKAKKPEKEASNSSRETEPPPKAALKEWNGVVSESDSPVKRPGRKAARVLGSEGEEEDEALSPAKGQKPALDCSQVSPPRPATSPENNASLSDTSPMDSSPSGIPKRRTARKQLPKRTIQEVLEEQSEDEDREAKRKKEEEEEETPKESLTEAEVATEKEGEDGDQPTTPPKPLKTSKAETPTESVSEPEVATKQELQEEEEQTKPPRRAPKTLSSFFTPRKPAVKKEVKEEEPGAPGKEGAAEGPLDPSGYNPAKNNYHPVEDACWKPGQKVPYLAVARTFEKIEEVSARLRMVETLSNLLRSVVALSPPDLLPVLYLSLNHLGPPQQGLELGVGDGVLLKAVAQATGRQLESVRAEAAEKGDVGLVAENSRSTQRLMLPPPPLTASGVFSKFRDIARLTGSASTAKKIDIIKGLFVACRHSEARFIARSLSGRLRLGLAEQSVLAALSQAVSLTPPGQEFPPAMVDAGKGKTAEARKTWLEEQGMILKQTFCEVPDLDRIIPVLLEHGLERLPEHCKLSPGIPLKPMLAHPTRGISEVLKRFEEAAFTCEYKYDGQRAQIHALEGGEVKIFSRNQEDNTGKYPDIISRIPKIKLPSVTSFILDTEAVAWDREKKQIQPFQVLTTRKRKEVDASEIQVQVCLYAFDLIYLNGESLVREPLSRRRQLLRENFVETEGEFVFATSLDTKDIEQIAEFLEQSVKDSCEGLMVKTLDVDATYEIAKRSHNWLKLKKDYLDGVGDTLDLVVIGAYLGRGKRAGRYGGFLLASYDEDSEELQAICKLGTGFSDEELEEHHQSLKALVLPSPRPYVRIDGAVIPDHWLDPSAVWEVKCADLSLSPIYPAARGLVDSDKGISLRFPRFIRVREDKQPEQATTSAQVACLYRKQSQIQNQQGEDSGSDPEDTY
Description: The ligation assay was done strictly following the assay protocol described in Xi Chen et. al, Cancer Res 2008; 68(9):3169-3177. The DNA molecules 52 mer (5′-3′), 28-mer (5′-3′) and 34-mer (5′-3′) were used to construct a double stranded nicked substrate for the ligase enzyme (FIG. 4). The 34-mer oligo was labelled with 32P-AMP to form a substrate for ligase and to form a ligase-AMP intermediate. During ligation, the ligase would transfer the AMP to the nick forming a phosphodiester bond and seal the nick. The ligated DNA molecule would be larger in size and run higher up on a 7% Urea-containing denaturing acrylamide gel. If an inhibitor is added to the reaction mixture prior to the addition of ligase, this would lead to an inhibition of ligation and a corresponding loss of labelled ligated product in the gel. We would then be able to calculate the percentage of inhibition of ligation by estimating the amount of ligated product in the lane with no inhibitor and comparing it with the lanes containing different inhibitor molecules or with the same inhibitor molecule at different concentrations.

pIC50 [1] | pIC50 [2] | pIC50 [3] | Structure (SMILES) | pIC50 [4] | DNA ligase I / ligation inhibition (in words) [5]
< 4.70 | < 4.70 | < 4.70 | CC[N+](C)(CC)CC(=O)NC1CCC(=O)N(CC(=O)c2ccccc2)C1=O (stereo not drawn) [Compound 8a, {[2,6-Dioxo-1-(2-oxo-2-phenyl-ethyl)-piperidin-3-ylcarbamoyl]-methyl}-Diethyl-methyl-ammonium iodide] | < 4.70 | 
< 4.70 | < 4.70 | < 4.70 | CCC[N+](C)(CCC)CC(=O)NC1CCC(=O)N(CC(=O)c2ccccc2)C1=O (stereo not drawn) [Compound 8b, Dipropylamm{[2,6-Dioxo-1-(2-oxo-2-phenyl-ethyl)-piperidin-3-ylcarbamoyl]-methyl}-methyl-ammonium iodide] | < 4.70 | 
< 4.70 | < 4.70 | < 4.70 | CCCC[N+](C)(CCCC)CC(=O)NC1CCC(=O)N(CC(=O)c2ccccc2)C1=O (stereo not drawn) [Compound 8c, Dibutyl-{[2,6-dioxo-1-(2-oxo-2-phenyl-ethyl)-piperidin-3-ylcarbamoyl]-methyl}-methyl-ammonium iodide] | < 4.70 | 
< 4.70 | < 4.70 | < 4.70 | CCCCC[N+](C)(CCCCC)CC(=O)NC1CCC(=O)N(CC(=O)c2ccccc2)C1=O (stereo not drawn) [Compound 8d, {[2,6-Dioxo-1-(2-oxo-2-phenyl-ethyl)-piperidin-3-ylcarbamoyl]-methyl}-Methyl-dipentyl-ammonium iodide] | < 4.70 | 
< 4.70 | < 4.70 | < 4.70 | CCCCCC[N+](C)(CCCCCC)CC(=O)NC1CCC(=O)N(CC(=O)c2ccccc2)C1=O (stereo not drawn) [Compound 8e, {[2,6-Dioxo-1-(2-oxo-2-phenyl-ethyl)-piperidin-3-ylcarbamoyl]-methyl}-Dihexyl-methyl-ammonium iodide] | < 4.70 | 
< 4.70 | 5.48 | < 4.70 | CCCCCCC[N+](C)(CCCCCCC)CC(=O)NC1CCC(=O)N(CC(=O)c2ccccc2)C1=O (stereo not drawn) [Compound 8f, {[2,6-Dioxo-1-(2-oxo-2-phenyl-ethyl)-piperidin-3-ylcarbamoyl]-methyl}-Diheptyl-methyl-ammonium iodide] | < 4.70 | 
5.06 | 5.49 | 5.19 | CCCCCCCCC[N+](C)(CCCCCCCCC)CC(=O)NC1CCC(=O)N(CC(=O)c2ccccc2)C1=O (stereo not drawn) [Compound 8h, {[2,6-Dioxo-1-(2-oxo-2-phenyl-ethyl)-piperidin-3-ylcarbamoyl]-methyl}-Methyl-dinonyl-ammonium iodide] | 5.56 | 
< 4.70 | < 4.70 | < 4.70 | CCCCCCCCCCCCC[N+](C)(CCCCCCCCCCCCC)CC(=O)NC1CCC(=O)N(CC(=O)c2ccccc2)C1=O (stereo not drawn) [Compound 8l, {[2,6-Dioxo-1-(2-oxo-2-phenyl-ethyl)-piperidin-3-ylcarbamoyl]-methyl}-Methyl-ditridecyl-ammonium iodide] | < 4.70 | did not elicit any DNA ligase I inhibition
< 4.70 | < 4.70 | < 4.70 | CCCCCCCCCCCCCC[N+](C)(CCCCCCCCCCCCCC)CC(=O)NC1CCC(=O)N(CC(=O)c2ccccc2)C1=O (stereo not drawn) [Compound 8m, {[2,6-Dioxo-1-(2-oxo-2-phenyl-ethyl)-piperidin-3-ylcarbamoyl]-methyl}Methyl-ditetradecyl-ammonium iodide] | < 4.70 | did not elicit any DNA ligase I inhibition

The remaining lines, values behind:

Structure (SMILES) | pIC50 [1] | pIC50 [2] | pIC50 [3] | pIC50 [4] | DNA ligase I / ligation inhibition (in words) [5]
CCN(CC)CC(=O)NC1CCC(=O)N(CC(=O)c2ccccc2)C1=O (stereo not drawn) [Compound 7a, 2-Diethylamino-N-[2,6-dioxo-1-(2-oxo-2-phenyl-ethyl)-piperidin-3-yl]-acetamide] | < 4.70 | < 4.70 | < 4.70 | < 4.70 | 
CCCN(CCC)CC(=O)NC1CCC(=O)N(CC(=O)c2ccccc2)C1=O (stereo not drawn) [Compound 7b, 2-Dipropylamino-N-[2,6-dioxo-1-(2-oxo-2-phenyl-ethyl)-piperidin-3-yl]acetamide] | < 4.70 | < 4.70 | < 4.70 | < 4.70 | 
CCCCN(CCCC)CC(=O)NC1CCC(=O)N(CC(=O)c2ccccc2)C1=O (stereo not drawn) [Compound 7c, 2-Dibutylamino-N-[2,6-dioxo-1-(2-oxo-2-phenyl-ethyl)-piperidin-3-yl]-acetamide] | < 4.70 | < 4.70 | < 4.70 | < 4.70 | 
CCCCCN(CCCCC)CC(=O)NC1CCC(=O)N(CC(=O)c2ccccc2)C1=O (stereo not drawn) [Compound 7d, 2-Dipentylamino-N-[2,6-dioxo-1-(2-oxo-2-phenyl-ethyl)-piperidin-3-yl]-acetamide] | < 4.70 | 4.90 | < 4.70 | < 4.70 | 
CCCCCCN(CCCCCC)CC(=O)NC1CCC(=O)N(CC(=O)c2ccccc2)C1=O (stereo not drawn) [Compound 7e, 2-Dihexylamino-N-[2,6-dioxo-1-(2-oxo-2-phenyl-ethyl)-piperidin-3-yl]-acetamide] | < 4.70 | 5.24 | 5.41 | 5.43 | 
CCCCCCCN(CCCCCCC)CC(=O)NC1CCC(=O)N(CC(=O)c2ccccc2)C1=O (stereo not drawn) [Compound 7f, 2-Diheptylamino-N-[2,6-dioxo-1-(2-oxo-2-phenyl-ethyl)-piperidin-3-yl]-acetamide] | < 4.70 | 5.11 | 5.03 | 5.06 | 
CCCCCCCCN(CCCCCCCC)CC(=O)NC1CCC(=O)N(CC(=O)c2ccccc2)C1=O (stereo not drawn) [Compound 7g, 2-Dioctylamino-N-[2,6-dioxo-1-(2-oxo-2-phenyl-ethyl)-piperidin-3-yl]-acetamide] | < 4.70 | 4.94 | 4.99 | 5.14 | 
CCCCCCCCCN(CCCCCCCCC)CC(=O)NC1CCC(=O)N(CC(=O)c2ccccc2)C1=O (stereo not drawn) [Compound 7h, 2Dinonylamino-N-[2,6-dioxo-1-(2-oxo-2-phenyl-ethyl)-piperidin-3-yl]-acetamide] | < 4.70 | < 4.70 | 4.70 | 4.97 | 
CCCCCCCCCCN(CCCCCCCCCC)CC(=O)NC1CCC(=O)N(CC(=O)c2ccccc2)C1=O (stereo not drawn) [Compound 7i, 2-(Bis-decyl-amino)-N-[2,6-dioxo-1-(2-oxo-2-phenyl-ethyl)-piperidin-3-yl]acetamide] | < 4.70 | < 4.70 | 4.85 | < 4.70 | 
CCCCCCCCCCCN(CCCCCCCCCCC)CC(=O)NC1CCC(=O)N(CC(=O)c2ccccc2)C1=O (stereo not drawn) [Compound 7j, N-[2,6-Dioxo-1-(oxo-2-phenyl-ethyl)-piperidine-3-yl]-2-diundecylamino-acetamide] | 4.76 | < 4.70 | < 4.70 | < 4.70 | 
CCCCCCCCCCCCN(CCCCCCCCCCCC)CC(=O)NC1CCC(=O)N(CC(=O)c2ccccc2)C1=O (stereo not drawn) [Compound 7k, N-[2,6-Dioxo-1-(oxo-2-phenyl-ethyl)-piperidine-3-yl]-2-didodecylamino-acetamide] | < 4.70 | < 4.70 | < 4.70 | < 4.70 | 
CCCCCCCCCCCCCN(CCCCCCCCCCCCC)CC(=O)NC1CCC(=O)N(CC(=O)c2ccccc2)C1=O (stereo not drawn) [Compound 7l, N-[2,6-Dioxo-1-(oxo-2-phenyl-ethyl)-piperidine-3-yl]-2-ditridecylamino-acetamide] | < 4.70 | < 4.70 | < 4.70 | < 4.70 | 
CCCCCCCCCCCCCCN(CCCCCCCCCCCCCC)CC(=O)NC1CCC(=O)N(CC(=O)c2ccccc2)C1=O (stereo not drawn) [Compound 7m, N-[2,6-Dioxo-1-(oxo-2-phenyl-ethyl)-piperidine-3-yl]-2-ditetradecylamino-acetamide] | < 4.70 | < 4.70 | < 4.70 | < 4.70 | 

From patent US10266564B2, “Cationic lipid cordiarimide hybrid compounds and a process for preparation thereof” (COUNCIL OF SCIENTIFIC & INDUSTRIAL RESEARCH, priority 2014, dated 2019)
